# Source: PMC6021345 (Oncotarget, 2018)
# Experiments:
# [1] = molecular target: T1, CES2 (Homo sapiens, UniProt O00748); test: In vitro CES2 enzyme-based assay (4-NPA substrate); assay type: biochemical
# T1 construct: purchased Sigma-Aldrich E0412
# T1 sequence (O00748 27-559): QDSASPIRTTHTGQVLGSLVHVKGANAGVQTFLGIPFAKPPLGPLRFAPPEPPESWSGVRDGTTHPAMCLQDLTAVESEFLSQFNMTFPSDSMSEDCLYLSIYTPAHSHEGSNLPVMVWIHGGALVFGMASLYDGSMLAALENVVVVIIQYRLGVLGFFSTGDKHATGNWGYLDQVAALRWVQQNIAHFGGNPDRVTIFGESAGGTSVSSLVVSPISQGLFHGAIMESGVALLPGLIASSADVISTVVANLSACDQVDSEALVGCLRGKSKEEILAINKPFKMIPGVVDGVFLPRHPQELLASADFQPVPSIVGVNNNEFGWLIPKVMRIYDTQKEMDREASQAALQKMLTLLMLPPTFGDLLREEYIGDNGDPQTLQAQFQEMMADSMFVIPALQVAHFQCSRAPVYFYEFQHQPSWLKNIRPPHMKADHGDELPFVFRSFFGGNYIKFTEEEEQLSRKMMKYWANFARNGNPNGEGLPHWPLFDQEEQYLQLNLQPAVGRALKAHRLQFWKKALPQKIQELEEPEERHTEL
# Procedure: (§1) The recombinant purified CES2 and CES1 enzymes, and 4-NPA were purchased from Sigma-Aldrich with product IDs E0412, E0162, and N8130, respectively. […] All compounds were dissolved in DMSO at 10mM. In the screening assay, the compounds were diluted in 50mM HEPES and the final compound concentration in the reaction system was adjusted to 50μM. […] The assays were conducted at 300μl total volume in 96-well plates. Reactions consisted of the following: 100μL 50mM HEPES with 20 units of enzyme, 10μL compound solution (various concentrations), 2μL 300mM 4-NAP, and 188μL 50mM HEPES, pH 7.4. The compound and 4-NAP solution were added into the plate first and then the reaction was initiated by the addition of enzyme solution. After 15 minutes incubation at 25°C, absorbance was measured using a microplate reader at 405nm in FLUOstar Omega Microplate Reader. The CES1/CES2 inhibitor compound bis-(4-nitrophenyl) phosphate (BNPP) was used as positive control in all the assays.
# [2] = molecular target: T2, CES1 (Homo sapiens, UniProt P23141); test: In vitro CES1 enzyme-based assay (4-NPA substrate); assay type: biochemical; conditions: even at 300μM
# T2 construct: purchased Sigma-Aldrich E0162
# T2 sequence (P23141 18-567): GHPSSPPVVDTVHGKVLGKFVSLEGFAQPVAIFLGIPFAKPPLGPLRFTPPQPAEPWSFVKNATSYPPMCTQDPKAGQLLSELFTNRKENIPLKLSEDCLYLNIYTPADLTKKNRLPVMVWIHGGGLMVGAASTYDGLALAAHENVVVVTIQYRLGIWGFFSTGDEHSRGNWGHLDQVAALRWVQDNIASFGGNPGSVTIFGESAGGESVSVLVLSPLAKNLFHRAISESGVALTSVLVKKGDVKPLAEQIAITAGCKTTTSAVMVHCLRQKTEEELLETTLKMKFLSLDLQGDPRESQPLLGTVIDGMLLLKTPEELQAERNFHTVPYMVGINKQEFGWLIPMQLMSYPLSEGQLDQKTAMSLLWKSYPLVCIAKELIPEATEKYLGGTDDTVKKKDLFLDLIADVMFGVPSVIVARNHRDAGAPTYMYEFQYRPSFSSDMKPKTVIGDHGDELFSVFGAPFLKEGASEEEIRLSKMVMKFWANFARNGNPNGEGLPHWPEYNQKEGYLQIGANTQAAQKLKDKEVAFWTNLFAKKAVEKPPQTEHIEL
# Procedure: as §1
# [3] = set-up: method as in PMID 10725311; conditions: after i.v. dosing radiolabeled drug; cited from earlier work
# [4] = test system: murine CT-26 tumor-bearing immuno-competent mice; test: CPT-11 induced diarrhea in CT-26 tumor-bearing mice; assay type: in vivo; conditions: for mice that had to be euthanized: by day 12; for mice with rapid recovery in body weight: 5 days after cessation of CPT-11; for mice that never showed any signs of diarrhea: through end of study
# Procedure: We tested the effect of Hst (20 and 100 mg/kg) on murine CT-26 tumor-bearing immuno-competent mice with CPT-11 (50 mg/kg, roughly equivalent to 5 mg/kg typical human CPT-11 dose) intraperitoneally injected daily from day 1-9. Hst was given from day 1-15 and 30 min before CPT-11 administration on day 1-9. Changes of stool character were recorded twice daily to determine the severity of diarrhea. Fecal staining of skin or lose watery stool was determined as diarrhea but not severe, and only the black sticky stool (bloody diarrhea) was determined as severe diarrhea.
# (§2) CT-26 cell line was used to make the tumor bearing mouse model by s.c. injection of 0.02mL cells in PBS at 5×10^7 cells/mL into the posterior mid-dorsum. Tumor volumes were estimated by the formula π/6×a^2×b, where a is the short and b is the long axis. When tumor volume reached roughly 100mm^3 (~10 days after implantation, defined as day 1), mice were randomly separated into 5 groups, 1). CPT-11 only group, receiving CPT-11 50mg/kg + vehicle 2). CPT-11+Hst 20mg/kg, 3). CPT-11+Hst 100mg/kg, 4). Hst 100mg/kg only, and 5) vehicle control group. CPT-11 was administrated by i.p. injection from day 1 to day 9 while Hst were administrated by oral gavage from day 1 to the end of study. An equivalent dosage of saline or CMC were administrated by i.p injection and oral gavage as vehicle, respectively. Mice were examined daily for signs of diarrhea (fecal staining of skin, lose watery stool) and bloody diarrhea (black sticky stool), as well as tumor growth. After sacrifice, jejunum, ileum and colon samples were dissected. Tissues were formalin-fixed and paraffin embedded for histological examination using 4μm-thick, 100μm step serial sections stained with H&E. A histologic score to evaluate inflammation, epithelial changes and mucosa architecture for each slide was calculated as described previously. For immunohistochemical staining, sections were stained with antibodies against Ki67, β-catenin, F4/80, Ly-6B.2 and pSTAT3 (Tyr705) overnight at 4°C. Slides were then washed and stained with the appropriate secondary antibodies. Mounted slides were examined under Olympus BX61 upright microscopy (HMRI Advanced Cellular and Tissue Microscope Core Facility).
# [5] = set-up: method as in printed; conditions: library annotation; ref not given; cited from earlier work
# [6] = test system: CT-26 tumor; test: Tumor growth in CT-26 tumor-bearing mice; assay type: in vivo
# Procedure: as §2, with “For immunohistochemical staining, sections were stained with antibodies against Ki67, β-catenin, F4/80, Ly-6B.2 and pSTAT3 (Tyr705) overnight at 4°C. Slides were then washed and stained with the appropriate secondary antibodies. Mounted slides were examined under Olympus BX61 upright microscopy (HMRI Advanced Cellular and Tissue Microscope Core Facility).” left out
# [7] = test system: different cancer cell lines including CT-26; test: Cell viability analysis on cancer cell lines; assay type: cell-based; conditions: Hst alone
# Procedure: (§3) CT-26 (murine colon cancer), HCT-116 (human colon cancer), CRL-1739 (human stomach gastric cancer) and CRL-1682 (human pancreatic cancer) cell lines were purchased form ATCC. All cells were cultured in T-75 flasks (Falcon). All media were purchased from Life Technologies and supplemented with 10% fetal bovine serum (Sigma) and 1% penicillin-streptomycin (Fisher Scientific). CT-26 and CRL-1682 were cultured in RPMI-1640 medium. CRL-1739 and HCT-116 were cultured in DMEM medium. All cells were cultured in a 37° C, 5% CO2 incubator.
# [8] = test system: small intestinal CES; test: Ex vivo small intestinal CES assay (microsomes) after oral Hst; assay type: in vivo, mice; conditions: 20 mg/kg Hst oral, 4h after single dose, n=5
# Procedure: (§4) Single oral dose of 135 mg Hst in healthy adult subjects was rapidly absorbed and the concentration in plasma observed 20 min after dosing and reached a peak in 4h.
# (§5) Microsomes of the liver and small intestinal epithelium were prepared from animals with or without Hst treatment. Animals were killed by exsanguination at 4h after single oral dosing of Hst. Their liver and small intestines were removed immediately and cooled in cold physiological saline. Small intestine epithelium was scraped from the intestine with slide glass. Tissues were homogenized in 1.15% KCl on ice by a Teflon homogenizer, followed by centrifugation at 9,000×g for 10min at 4°C. The supernatant was re-centrifuged at 105,000×g for 60 min at 4°C, resulting in sedimentation of the microsome. The microsomal pellet was re-suspended in 1.15% KCl. To measure CES activity, microsomes (protein content: 1 mg/mL) were incubated with 4-NAP solution in phosphate-buffered saline at 37°C, and 50μL aliquots were sampled up to 20 min.
# [9] = test system: liver CES; test: Ex vivo liver CES assay (microsomes) after oral Hst; assay type: in vivo, mice; conditions: 20 mg/kg Hst oral
# Procedure: as §4, §5
# [10] = single oral dose of 135 mg Hst, healthy adult subjects, cited from earlier work
# [11] = test system: intestinal inflammation; test: Intestinal inflammation in CPT-11 treated mice; assay type: in vivo
# Procedure: as §2, with “For immunohistochemical staining, sections were stained with antibodies against Ki67, β-catenin, F4/80, Ly-6B.2 and pSTAT3 (Tyr705) overnight at 4°C. Slides were then washed and stained with the appropriate secondary antibodies. Mounted slides were examined under Olympus BX61 upright microscopy (HMRI Advanced Cellular and Tissue Microscope Core Facility).” left out
# [12] = test system: p-STAT3; test: Immunohistochemistry of p-STAT3 in mouse tumors; assay type: in vivo, mice; conditions: CPT-11 + Hst
# Procedure: as §2, with “For immunohistochemical staining, sections were stained with antibodies against Ki67, β-catenin, F4/80, Ly-6B.2 and pSTAT3 (Tyr705) overnight at 4°C. Slides were then washed and stained with the appropriate secondary antibodies. Mounted slides were examined under Olympus BX61 upright microscopy (HMRI Advanced Cellular and Tissue Microscope Core Facility).” left out
# [13] = test system: STAT3; test: STAT3 Cignal Reporter Assay; assay type: cell-based; conditions: HEK293 cells, Hst 24h, IL-6 100 ng/ml 90 min
# Procedure: STAT3 transcription factor activity was measured using the Cignal STAT3 Reporter Assay Kit (Qiagen) according to the manufacturers’ instructions. HEK293 cells were transfected with the Renilla luciferase reporter plasmid. Twenty-four hours later, cells were treated with Hst for 24h, and were incubated with 100 ng/ml IL-6 for 90 min before lysed. Subsequently, Renilla luciferase activity was measured in a microplate reader. Relative transcription factor activity was calculated by dividing relative light units (RLU) of the STAT3-specific reporter and the negative control reporter.
# [14] = test system: p-STAT3 (Tyr705); test: Western blot of IL-6 induced p-STAT3 (Tyr705) in cancer cell lines; assay type: cell-based; conditions: various cancer cell lines, IL-6 100ng/ml 90 min
# Procedure: as §3
# RIPA buffer was purchased form Fisher Scientific. Xpert protease inhibitor cocktail solution 100X and Xpert phosphatase inhibitor cocktail solution 100X were purchased from GenDEPOT. 4–20% Mini-PROTEAN® TGX™ Gel and Trans-Blot® Turbo™ Mini Nitrocellulose Transfer Packs were purchased form Bio-Rad. Rabbit NF-κB and phospho-Stat3 (Tyr705) primary antibody, mouse β-Actin (8H10D10) primary antibody, and anti-mouse IgG HRP conjugated, anti-rabbit IgG HRP conjugated secondary antibody were purchased from Cell Signaling Technology.
# [15] = set-up: method as in printed; conditions: ref not given; cited from earlier work
# [16] = set-up: method as in printed; conditions: high dose loperamide; ref not given; cited from earlier work
compound,measurement,setting,value
"O=C(/C=C/c1ccccc1)c1ccc(O)cc1O [2’, 4’-dihydroxychalcone]",selectivity for CES2 (over CES1),[1]; CES2 vs CES1,> 100 fold
same,IC50,"[1]; recombinant CES2, 4-NPA, 15 min, 25°C",1660 ± 690 nM
same,CES1 inhibition,[2],no significant CES1 inhibition
"CCc1c2c(nc3ccc(OC(=O)N4CCC(N5CCCCC5)CC4)cc13)-c1cc3c(c(=O)n1C2)COC(=O)[C@]3(O)CC [CPT-11, irinotecan]",fraction found unchanged in human bile,[3],30%
same,mice that had to be euthanized,[4]; CPT-11 only group,all
same,mice that developed some degree of diarrhea,"[4]; mouse, in vivo, 15 day",100%
"CC1(C)CCC2=C(O1)c1ccccc1C(=O)C2=O [compound 1004, beta-Lapachone]",solubility remark,[5],"poorly soluble, anti-tumor at mM level, combination and radiosensitizing activity"
COc1ccc([C@@H]2CC(=O)c3c(O)cc(O)cc3O2)cc1O [hesperetin],effect on in vivo antitumor activity of CPT-11,"[6]; Hst 20 and 100 mg/kg + CPT-11, starting 5-6 days after Hst treatment",enhanced the in vivo antitumor activity of CPT-11
same,"tumor growth, Hst alone",[6]; Hst alone 100 mg/kg,mild inhibition on tumor growth
same,mice with severe diarrhea,"[4]; CPT-11 + Hst 20 mg/kg oral, day 11",2 out of 10
same,mice with rapid recovery in body weight,[4]; CPT-11 + Hst 20 mg/kg,20%
same,mice that had to be euthanized,[4]; CPT-11 + Hst 20 mg/kg,40%
same,body weight lost on average,"[4]; CPT-11 + Hst 20 mg/kg, day 11",20%
same,mice that never showed any signs of diarrhea,[4]; CPT-11 + Hst 20 mg/kg,20%
same,mice with severe diarrhea,"[4]; CPT-11 + Hst 100 mg/kg oral, until day 12",2 out of 10
same,mice with rapid recovery in body weight,[4]; CPT-11 + Hst 100 mg/kg,20%
same,mice that had to be euthanized,[4]; CPT-11 + Hst 100 mg/kg,20%
same,body weight lost on average,"[4]; CPT-11 + Hst 100 mg/kg, day 11",17%
same,mice that never showed any signs of diarrhea,[4]; CPT-11 + Hst 100 mg/kg,30%
same,severe diarrhea prohibited,"[4]; oral Hst, CPT-11 administered tumor-bearing mice",80%
same,cytotoxicity in vitro,[7],did not show any potent cytotoxicity effects
same,small intestinal CES activity,[8],2.28±1.42 nmol/min/g protein
same,reduction of small intestinal CES activity,[8]; vs control,56%
same,CES1 inhibition,[2],no significant CES1 inhibition
same,liver CES activity,"[9]; 4h after single dose, n=5",8.89±0.74 nmol/min/g protein
same,change of liver CES activity,[9]; vs control,did not have an obvious change
same,time after dosing at which concentration in plasma was observed,[10],20 min
same,time to peak plasma concentration,[10],4 h
same,Cmax,[10]; read-out: mean peak plasma concentration (Cmax),2730 ± 1350 nM
same,"infiltration of inflammatory cells (neutrophils, macrophages) and cytokine release (TNF-α, IL-6)",[11]; dose dependent,blocked
same,tissue expression of NF-κB,[11]; mouse small intestine,significantly down-regulated
same,p-STAT3 expression in the tumors,[12],remarkably suppressed
same,concentration inhibiting IL-6 induced STAT3 reporter activity,[13],20 to 100 µM
same,IL-6 induced p-STAT3 (Tyr705) expression,[14],significant down-regulation
COc1ccc([C@@H]2CC(=O)c3c(O)cc(O[C@@H]4O[C@H](CO[C@@H]5O[C@@H](C)[C@H](O)[C@@H](O)[C@H]5O)[C@@H](O)[C@H](O)[C@H]4O)cc3O2)cc1O [hesperidin],fraction metabolized in cells to generate Hst,[15],99%
CN(C)C(=O)C(CCN1CCC(O)(c2ccc(Cl)cc2)CC1)(c1ccccc1)c1ccccc1 [loperamide],incidence of grade 3-4 diarrheas,[16],28-40 % of treated patients
